The values below come from patent publication US7592373B2 (Boehringer Ingelheim International GmbH, priority 2003, dated 2009).

Structures can show the parent of a compound that is named as a salt.

Consider `CN(Cc1ccccc1)Cc1ccc(CCC(=O)Nc2ccc(-c3ccc(Cl)cc3)cc2)cc1` [Example 6.18, 3-{4-[(benzylmethylamino)methyl]phenyl}-N-(4′-chlorobiphenyl-4-yl)propionamide], for which the melting point lay within 174 to 175 °C. On to `O=C(C#Cc1ccc(C(F)(F)F)cc1Cl)Nc1ccc(OCCn2cccn2)cc1` [Example 3.43, 3-(2-chloro-4-trifluoromethylphenyl)propynoic acid-[4-(2-pyrazol-1-ylethoxy)phenyl]amide], for which the melting point lay in the range of 120 to 125 °C.

Regarding `O=C(C#Cc1ccc(C(F)(F)F)cc1Cl)Nc1ccc2c(ccn2CCN2CCCC2)c1` [Example 4.11, 3-(2-chloro-4-trifluoromethylphenyl)propynoic acid-[1-(2-pyrrolidin-1-ylethyl)-1H-indol-5-yl]amide], the melting point was 200 to 205 °C. For `CCN(CC)CCOc1ccc(NC(=O)C#Cc2ccc(C(F)(F)F)cc2Cl)cc1` [Example 3.38, 3-(2-chloro-4-trifluoromethylphenyl)propynoic acid-[4-(2-diethylaminoethoxy)phenyl]amide] the value was 194 to 197 °C; for `CC#Cc1ccc(NC(=O)C#Cc2ccc(CN3CCCCC3)cc2)cc1` [Example 1.2, 3-(4-piperidin-1-ylemthylphenyl)propynoic acid-(4-prop-1-ynylphenyl)amide], 180 to 181 °C.

On to `O=C(CCc1ccc(CNCCC2CCCCC2)cc1)Nc1ccc(-c2ccc(Cl)cc2)cc1` [Example 6.35, N-(4′-chlorobiphenyl-4-yl)-3-{4-[(cyclohexylethylamino)methyl]phenyl}propionamide], for which the melting point was 149 to 150.5 °C. As for `O=C(C#Cc1ccc(CN2CCCCC2)cc1)Nc1ccc(-c2ccc(Cl)cc2)cc1` [Example 1.39, 3-(4-piperidin-1-ylemthylphenyl)propynoic acid-(4′-chlorobiphenyl-4-yl)amide], the figure is 179.5 °C; as for `CN(Cc1ccc(NC(=O)C#Cc2ccc(-c3ccc(Cl)cc3)cc2)cc1)CC1CC1` [Example 3.15, 3-(4′-chlorobiphenyl-4-yl)propynoic acid-{4-[(cyclopropylmethylmethylamino)methyl]phenyl}amide], 164 to 167 °C; as for `CN(Cc1ccncc1)Cc1ccc(CCC(=O)Nc2ccc(-c3ccc(Cl)cc3)cc2)cc1` [Example 6.32, N-(4′-chlorobiphenyl-4-yl)-3-{4-[(methylpyridin-4-ylmethylamino)methyl]phenyl}propionamide], 102 °C. As for `CNC1(c2ccc(C#CC(=O)Nc3ccc(-c4ccc(Cl)cc4)cc3)cc2)CC1` (as salt: trifluoroacetate) [Example 1.423, 3-[4-(1-methylaminocyclopropyl)phenyl]propynoic acid-(4′-chlorobiphenyl-4-yl)amide trifluoroacetate], the melting point stood at 217.3 °C. As for `CC1CCN(Cc2ccc(CCC(=O)Nc3ccc(-c4ccc(Cl)cc4)cc3)cc2)CC1` [Example 6.2, N-(4′-chlorobiphenyl-4-yl)-3-[4-(4-methylpiperidin-1-ylmethyl)phenyl]propionamide], the melting point fell in the range of 150 to 151 °C. As for `COc1cc(NC(=O)C#Cc2ccc(C(F)(F)F)cc2Cl)ccc1OCCN1CC(C)CC(C)C1` (stereo not drawn) [Example 4.271, 3-(2-chloro-4-trifluoromethylphenyl)propynoic acid-{4-[2-(3,5-dimethylpiperidin-1-yl)ethoxy]-3-methoxyphenyl}amide], the figure is 196 to 201 °C. With `O=C(CCc1ccc(CNCC2CC2)cc1)Nc1ccc(-c2ccc(Cl)cc2)cc1` [Example 6.15, N-(4′-chlorobiphenyl-4-yl)-3-{4-[(cyclopropylmethylamino)methyl]phenyl}propionamide], the melting point fell in the range of 191 to 192 °C. As for `C[C@@H]1C[C@H](C)CN(Cc2ccc(/C=C/C(=O)Nc3ccc(-c4ccc(Cl)cc4)cc3)cc2)C1` [Example 5.3, (E)-N-(4′-chlorobiphenyl-4-yl)-3-[4-(cis-3,5-dimethylpiperidin-1-ylmethyl)phenyl]acrylamide], the figure is 217 to 218 °C; as for `O=C(/C=C/c1ccc(CNC2CCCCC2)cc1)Nc1ccc(-c2ccc(Cl)cc2)cc1` [Example 5.33, (E)-N-(4′-chlorobiphenyl-4-yl)-3-(4-cyclohexylaminomethylphenyl)acrylamide], 247 to 248 °C. For `CC1CCN(Cc2ccc(NC(=O)C#Cc3ccc(-c4ccc(Cl)cc4)cc3)cc2)CC1` [Example 3.14, 3-(4′-chlorobiphenyl-4-yl)propynoic acid-[4-(4-methylpiperidin-1-ylmethyl)phenyl]amide], the melting point was 263 to 268 °C. For `CCN(CC)CCOc1ccc(NC(=O)C#Cc2ccc(C(F)(F)F)cc2Cl)cc1N` [Example 4.22, 3-(2-chloro-4-trifluoromethylphenyl)propynoic acid-[3-amino-4-(2-diethylaminoethoxy)phenyl]amide] the value was 127 to 130 °C. `O=C(Nc1ccc(-c2ccc(Cl)cc2)cc1)C1CC1c1ccc(CN2CCOCC2)cc1` (stereo not drawn) [Example 6.217, 2-(4-morpholin-4-ylmethylphenyl)cyclopropanecarboxylic acid (4′-chlorobiphenyl-4-yl)amide]: the melting point lay within 187 to 188 °C.

Consider `O=C(CCc1ccc(CNCc2ccccc2)cc1)Nc1ccc(-c2ccc(Cl)cc2)cc1` [Example 6.38, 3-[4-(benzylaminomethyl)phenyl]-N-(4′-chlorobiphenyl-4-yl)propionamide], for which the melting point was found to be 176 °C. As for `CC(C)Nc1ccc2cc(NC(=O)C#Cc3ccc(C(F)(F)F)cc3Cl)ccc2n1` [Example 7.2, 3-(2-chloro-4-trifluoromethylphenyl)propynoic acid-(2-isopropylaminoquinolin-6-yl)amide], the figure is 57 to 60 °C.

Compound `CCN(CC)CCOc1ccc(NC(=O)C#Cc2ccc(-c3ccccc3)cc2Cl)cc1Cl` (as salt: hydrochloride) [Example 3.32, 3-(3-chlorobiphenyl-4-yl)propynoic acid-[3-chloro-4-(2-diethylaminoethoxy)phenyl]amide hydrochloride] registered a melting point of 195 to 200 °C. On to `O=C(/C=C/c1ccc(CN2CC[C@H](O)C2)cc1)Nc1ccc(-c2ccc(Cl)cc2)cc1` [Example 5.9, (E)-N-(4′-chlorobiphenyl-4-yl)-3-[4-((S)-3-hydroxypyrrolidin-1-ylmethyl)phenyl]acrylamide], for which the melting point fell in the range of 178 to 179 °C. For `COc1cc(NC(=O)C#Cc2ccc(C(F)(F)F)cc2Cl)ccc1OCCN1CCC(C(N)=O)CC1` [Example 4.276, 1-(2-{4-[3-(2-chloro-4-trifluoromethylphenyl)propynoylamino]-2-methoxyphenoxy}ethyl)piperidine-4-carboxylic acid amide] the value was 150 °C; for `COC1CCN(Cc2ccc(/C=C/C(=O)Nc3ccc(-c4ccc(Cl)cc4)cc3)cc2)CC1` [Example 5.4, (E)-N-(4′-chlorobiphenyl-4-yl)-3-[4-(4-methoxypiperidin-1-ylmethyl)phenyl]acrylamide], 205 to 206 °C; for `CC1CCCC(C)N1Cc1ccc(NC(=O)C#Cc2ccc(-c3ccc(Cl)cc3)cc2)cc1` (stereo not drawn) [Example 3.9, 3-(4′-chlorobiphenyl-4-yl)propynoic acid-[4-(2,6-dimethylpiperidin-1-ylmethyl)phenyl]amide], 158 to 163 °C. As for `CCN(CC)CCOc1ccc(NC(=O)C#Cc2cccnc2)cc1Cl` [Example 4.285, 3-pyridin-3-ylpropynoic acid-[3-chloro-4-(2-diethylaminoethoxy)phenyl]amide], the melting point lay within 118 to 120 °C. For `CCN(CC)CCOc1ccc(NC(=O)C#Cc2ccc(C(F)(F)F)cc2Cl)cc1F` [Example 4.25, 3-(2-chloro-4-trifluoromethylphenyl)propynoic acid-[4-(3-diethylaminoethoxy)-3-fluorophenyl]amide] the value was 85 to 88 °C; for `CC1CCN(Cc2ccc(/C=C/C(=O)Nc3ccc(-c4ccc(Cl)cc4)cc3)cc2)CC1` [Example 5.2, (E)-N-(4′-chlorobiphenyl-4-yl)-3-[4-(4-methylpiperidin-1-ylmethyl)phenyl]acrylamide], 207 to 208 °C. As for `C[C@@H]1C[C@H](C)CN(Cc2ccc(CCC(=O)Nc3ccc(-c4ccc(Cl)cc4)cc3)cc2)C1` [Example 6.26, N-(4′-chlorobiphenyl-4-yl)-3-[4-((3S,5R)-3,5-dimethylpiperidin-1-ylmethyl)phenyl]propionamide], the melting point was in the range of 164 to 169 °C. For `O=C(CCc1ccc(CN2CCOCC2)cc1)Nc1ccc(-c2ccc(Cl)cc2)cc1` [Example 6.4, N-(4′-chlorobiphenyl-4-yl)-3-(4-morpholin-4-ylmethylphenyl)propionamide] the value was 193 to 194 °C.

`NC(=O)C1CCN(Cc2ccc(CCC(=O)Nc3ccc(-c4ccc(Cl)cc4)cc3)cc2)CC1` [Example 6.5, 1-{4-[2-(4′-chlorobiphenyl-4-ylcarbamoyl)ethyl]benzyl}piperidine-4-carboxylic acid amide] registered a melting point of 240 to 241 °C. Compound `CC1CN(Cc2ccc(/C=C/C(=O)Nc3ccc(-c4ccc(Cl)cc4)cc3)cc2)CC(C)O1` (stereo not drawn) [Example 5.23, (E)-N-(4′-chlorobiphenyl-4-yl)-3-[4-(2,6-dimethylmorpholin-4-ylmethyl)phenyl]acrylamide] gave a melting point of 212 to 213 °C. As for `CC1CCN(C2(c3ccc(C#CC(=O)Nc4ccc(-c5ccc(Cl)cc5)cc4)cc3)CC2)CC1` [Example 1.424, 3-{4-[1-(4-methylpiperidin-1-yl)cyclopropyl]phenyl}propynoic acid(4′-chlorobiphenyl-4-yl)amide], the figure is 128 to 129 °C; as for `CN(Cc1ccc(C#CC(=O)Nc2ccc(-c3ccc(Cl)cc3)cc2)cc1)C1CCCC1` [Example 1.425], 217 to 219 °C; as for `O=C(C#Cc1ccc(CN2CCC(O)CC2)cc1)Nc1ccc(-c2ccc(Cl)cc2)cc1F` [Example 1.21, 3-[4-(4-hydroxypiperidin-1-ylmethyl)phenyl]propynoic acid-(4′-chloro-3-fluorobiphenyl-4-yl)amide], 164 to 165 °C. With `CN(Cc1ccc(C#CC(=O)Nc2ccc(-c3ccc(Cl)cc3)cc2)cc1)CC1CC1` [Example 1.40], the melting point was determined as 181 °C.
